Test results: patent US8853452B2, “Compounds, their syntheses, compositions, and methods to treat cancer” (The Administrators of the Tulane Educational Fund, priority 2009, dated 2014)
Like-named read-outs stand apart in the source and are kept apart here.

Experiments:
[1] = test system: MCF-7 cells; assay: Clonogenic survival assay; assay type: cell-based, Human; settings: Table 2, 0.1 μM-20 μM for 10 days, read-out: MCF-7 (IC50), clonogenic survival
Description: (§1) Human cancer cell lines derived from breast, MCF-7, endocrine-resistant MDA-MB-231, and chemoresistant MCF-7TN-R were cultured in 75 cm^2 culture flasks in DMEM (Invitrogen, Co.) supplemented with 10% FBS (Life Technologies, Inc., Gaithersburg, Md.), basic minimum MEM essential (50×, Invitrogen Co.) and MEM non-essential (100×, Invitrogen, Co.) amino acids, sodium pyruvate (100× Invitrogen Co.), antimicotic-antibiotic (10,000 U/mL penicillin G sodium; 10,000 μg/mL streptomycin sulphate; 25 μg/mL amphotericin B as Fungizone®), and human recombinant insulin (4 mg/mL Invitrogen Co). Culture flasks were maintained in a tissue culture incubator in a humidified atmosphere of 5% CO2 and 95% air at 37° C.
(§2) MCF-7, MDA-MB-231, or MCF-7TN-R cells were plated in 6-well plates at 1000 cells per well. Twenty-four hours later, cells were treated with varying concentrations of the compound and then monitored microscopically for colony growth. Ten days later the cells were fixed with 3% glutaraldehyde. Following fixation for 15 min, the plates were washed and stained with a 0.4% solution of crystal violet in 20% methanol for 30 min, washed with PBS, and air-dried. Colonies of 30 cells were counted as positive. Results are normalized to percent clonogenic survival from untreated control cells. Statistical analysis of IC50 values were calculated from concentration-response curves using GraphPad Prism 5.0 (Graphpad Software, San Diego, Calif.), using with the equation: Y=Bottom+(Top−bottom)/1+10 Log EC50−X.
(§3) Compounds II-1, II-2, II-3, II-4, II-5, and II-6 were compared for their inhibitory effect on breast cancer clonogenic survival. Cells were treated with varying concentration of compound, ranging from 0.1 μM-20 μM for 10 days. […] At endpoint, cell colonies were fixed, stained and recorded as percent vehicle control.

[2] = test system: MCF-7TN-R cells; assay: Clonogenic survival assay; assay type: cell-based, Human; settings: Table 2, 0.1 μM-20 μM for 10 days, read-out: MCF-7-TNR (IC50), clonogenic survival
Description: as §1, §2, §3

[3] = test system: MDA-MB-231 cells; assay: Clonogenic survival assay; assay type: cell-based, Human; settings: Table 2, 0.1 μM-20 μM for 10 days, read-out: MDA-MB-231 (IC50), clonogenic survival
Description: as §1, §2, §3

[4] = test system: MCF-7 cells; assay: Apoptosis ELISA assay (Cell Death Detection ELISA, Roche); assay type: cell-based, Human; settings: double the IC50 concentration (ceramide 8.3 μM, II-3 9.4 μM)
Description: The induction of apoptosis by compounds was assayed using the nucleosome ELISA kit (Roche). The kit quantified formation of cytoplasmic histone-associated oligonucleosome DNA fragments resulting from apoptosis. […] The induction of apoptosis was determined by the amount of nucleosomes in the cytoplasm per the manufacturer's protocol. The values are the mean±SE of three independent experiments.
The ability of compound II-3 to induce apoptosis in MCF-7 cells was tested. Using a Cell Death Detection ELISA (Roche) to assess apoptosis, IC50 was measured for compound II-3 and C8-ceramide.

[5] = test system: MCF10A (normal breast epithelial) cells; assay: Proliferation assay in normal breast epithelial cells; assay type: cell-based; settings: for effect on normal breast epithelial proliferation: MCF10A, even at 100 μM, 24 h
Description: MCF10A cells were treated with varying concentrations of drug (0.1-100 μM) for 24 h. The values are the mean±SE of four independent experiments.
The selectivity of compound II-3 and C8-ceramide to inhibit cell growth of cancer cells was determined by performing proliferation assays using MCF10A (normal breast epithelial) cells (FIG. 18).

[6] = test system: MCF-7 cells; assay: Cellular sphingolipid species by lipidomics analysis; assay type: cell-based, Human; settings: 10 μM, 24 h
Description: (§4) (A) MCF-7, (B) MDA-MB-231, and (C) MCF-7TN-R cells were treated with ceramide (10 μM) and II-3 (10 μM) for 24 h. The values are the mean±SE of two independent experiments. S2 Endogenous lipid levels were quantified by mass spectrometry (Lipidomics Core, Medical University of South Carolina) according to published methods. Briefly, cells were collected, fortified with internal standards and extracted with ethyl acetate/isopropyl alcohol. ESI/MS/MS analyses of sphingoid bases, sphingoid base 1-phosphates, ceramides, and sphingomyelins were performed on a Thermo Finnigan TSQ 7000 triple quadrupole mass spectrometer.
(§5) The effect of compound II-3 on endogenous sphingolipid levels was compared to C8-ceramide using Lipidomics Analysis (FIG. 19-21). Dihydrosphingosine is elevated following compound II-3 treatment, with almost a 50 fold increase in MCF-7TN-R cells. Sphingosine-1-phosphate, the proliferative metabolite of ceramide, decreased in all three cell lines. C8-ceramide had the opposite effect and increased sphingosine-1-phosphate levels.

[7] = test system: MCF-7TN-R cells; assay: as above; assay type: cell-based, Human; settings: 10 μM, 24 h
Description: as §4, §5

[8] = test system: MDA-MB-231 cells; assay: as above; assay type: cell-based, Human; settings: 10 μM, 24 h
Description: as §4, §5

[9] = test system: MCF-7 cell line; assay: Proliferation assay; assay type: cell-based; settings: Homo sapiens, MCF7; FIG. 15; read-out: anti-proliferative IC50, MCF-7
Description: (§6) The ability of compound II-3 to block proliferation as an anti-survival mechanism in addition to apoptosis was determined by measuring anti-proliferative effects.

[10] = test system: MDA-MB-231 cell line; assay: Proliferation assay; assay type: cell-based; settings: Homo sapiens, FIG. 16, read-out: anti-proliferative IC50, MDA-MB-231
Description: as §6

[11] = test system: MCF-7TN-R cells; assay: Proliferation assay; assay type: cell-based; settings: Homo sapiens; FIG. 17; read-out: anti-proliferative IC50, MCF-7TN-R
Description: as §6
Nineteen compounds were synthesized using fifteen benzaldehydes as starting material. […] These were tested as potential anti-proliferative agents in MCF-7TN-R cells, and the structure-activity relationships were studied using several parameters. […] In compounds containing a methyl group, a significant increase of the PAC (C) in o-substituted compound was detected, which may account for the increased anti-proliferation activity. Ortho-substituted analogs with electron withdrawing groups by induction can have beneficial effects, and PAC (C) can be a useful predictor of the structural property of the molecule.

Structure (SMILES)	IC50 [1]	IC50 [2]	IC50 [3]	fold induction in apoptosis ([4]; 24 hours)	effect on normal breast epithelial proliferation [5]	Sphingosine-1-phosphate level [6]	Sphingosine-1-phosphate level [7]	Sphingosine-1-phosphate level [8]	IC50 ([1]; Homo sapiens, MCF7, 240 h)	IC50 ([2]; Homo sapiens, 240 h)	IC50 ([3]; Homo sapiens, MDA-MB-231, 240 h)	fold induction at 9.4 µM ([4]; Homo sapiens, MCF7, 24 hours)	IC50 [9]	IC50 [10]	IC50 [11]	100 μM (little effect in MCF10A) as fold of the IC50 value in chemoresistant cells ([5]; MCF10A versus chemoresistant cells)	Dihydrosphingosine fold increase [7]
CCCCCCCCCCCCC/C=C/[C@@H](O)[C@H](CO)NC(=O)CCCCCCC [Compound C8-Cer, D-erythro N-octanoyl sphingosine, reference compound]	4.2 µM	8.6 µM	3 µM	5.0 fold	little effect	increased	increased	increased									
CCCCCCCCCCCCCCNC(=O)[C@H](CO)N=Cc1ccccc1 [II-3, (S)-2-(benzylideneamino)-3-hydroxy-N-tetradecylpropanamide]	4.7 µM	7.7 µM	2.4 µM		little effect	decreased	decreased	decreased	4.69 µM	7.67 µM	2.35 µM	5.4	4.5 µM	1.8 µM	1.2 µM	greater than 50 fold	~50 fold
